US20240050601A1, “COMPOSITIONS AND ASSOCIATED METHODS FOR SUSTAINED-RELEASE OF RADIOACTIVE AGENTS AND THEIR APPLICATIONS” (priority 2020, published 2024)

Experiments:
[1] = test system: myeloproliferative neoplasms (MPNs); details: low dose range (5-7 mCi per intravenous injection, total up to 4 injections); cited from earlier work
[2] = in vivo; details: Balb/C, mouse
Description: The hydrogel was prepared, kept in a 4° C. refrigerator overnight ensuring a complete mixing, and balanced to ambient temperature prior to the administration. The molecular weight of ICG is 775 Da, which was used here as an example of small molecule. Two animal groups with different route of subcutaneous (s.c.) or intramuscular (i.m.) injection was assessed with an injection volume of 500 μl or 50 μl, respectively. The imaging was conducted for the animals immediately after hydrogel administration (within 1 minute), and then at predetermined time points of post injection.

O=[32P](O)(O)O [phosphate P-32]
tolerability and efficacy in MPNs [1]: well-tolerated and efficacious

CC1(C)C(/C=C/C=C/C=C/C=C2\N(CCCCS(=O)(=O)O)c3ccc4ccccc4c3C2(C)C)=[N+](CCCCS(=O)(=O)[O-])c2ccc3ccccc3c21 [TCG, indocyanine green]
half-life ([2]; im, 50 μl): ~4 h
half-life ([2]; sc, 500 μl): ~24 h
